Results from US10766869B2, “Triazoles for the treatment of demyelinating dieases” (Vertex Pharmaceuticals Incorporated, priority 2015, dated 2020).

Test system: primary rat mixed cortical cells
Assay: In vitro myelination assay (MBP positive myelin strands, fold myelin pixels above background)
Assay type: cell-based
Details: Rattus norvegicus, relative to baseline of no added compound, read-out: Fold myelin pixels above background; for fold induction at 1 µM: 1.0 μM compound; for fold induction at 10 µM: 10.0 μM compound
Procedure, shortened: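 P1 rat mixed cortical cultures (neurons, OPCs, oligodendrocytes, astrocytes, microglia) grown 14 days at 37 °C with compound, half-medium refreshed with compound on days 6 and 10. Fixed cells stained for MBP; MBP-positive myelin strand pixels per well quantified by automated imaging, reported as fold over no-compound baseline at 1.0 and 10.0 μM.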

Row | Structure (SMILES) | fold induction at 1 µM | fold induction at 10 µM
1 | Cc1cc(Nc2ncn(-c3ccc(F)c(F)c3)n2)cc(OC2CCCN(C3COC3)C2)c1 (stereo not drawn) [Compound 590, 1-(3,4-difluorophenyl)-N-[3-methyl-5-[[1-(oxetan-3-yl)-3-piperidyl]oxy]phenyl]-1,2,4-triazol-3-amine] | 10 to 100 | 1 to 10
2 | Cc1c(Nc2ncn(-c3cc(F)cc(F)c3)n2)cc(N2CCN(C3COC3)CC2)cc1OC(C)C [Compound 591, 1-(3,5-difluorophenyl)-N-[3-isopropoxy-2-methyl-5-[4-(oxetan-3-yl)piperazin-1-yl]phenyl]-1,2,4-triazol-3-amine] | 10 to 100 | 10 to 100
3 | N#Cc1cc(Nc2ncn(-c3ccccc3)n2)cc(N2CCN(C3COC3)CC2)c1 [Compound 592, 3-[4-(oxetan-3-yl)piperazin-1-yl]-5-[(1-phenyl-1,2,4-triazol-3-yl)amino]benzonitrile] | 1 to 10 | ≤ 1
4 | Cc1cc(Nc2ncn(-c3cc(F)cc(F)c3)n2)cc(N2CCN(CCN3CCOCC3)CC2)c1 [Compound 593, 1-(3,5-difluorophenyl)-N-[3-methyl-5-[4-(2-morpholinoethyl)piperazin-1-yl]phenyl]-1,2,4-triazol-3-amine] | 1 to 10 | ≤ 1
5 | Fc1cc(Nc2ncn(-c3cccc(F)c3)n2)cc(N2CCN(C3COC3)CC2)c1 [Compound 594, N-[3-fluoro-5-[4-(oxetan-3-yl)piperazin-1-yl]phenyl]-1-(3-fluorophenyl)-1,2,4-triazol-3-amine] | 1 to 10 | 1 to 10
6 | Cc1cc(Nc2ncn(-c3cccc(C(F)F)c3)n2)cc(N2CC(N3CCOCC3)C2)c1 [Compound 595, 1-[3-(difluoromethyl)phenyl]-N-[3-methyl-5-(3-morpholinoazetidin-1-yl)phenyl]-1,2,4-triazol-3-amine] | 1 to 10 | ≤ 1
7 | Cc1cc(CN2CCN(C3COC3)CC2)cc(Nc2ncn(-c3cc(F)cc(F)c3)n2)c1 [Compound 596, 1-(3,5-difluorophenyl)-N-[3-methyl-5-[[4-(oxetan-3-yl)piperazin-1-yl]methyl]phenyl]-1,2,4-triazol-3-amine] | 10 to 100 | 10 to 100
8 | Cc1cc(Nc2ncn(-c3ccc(F)c(Cl)c3)n2)cc(N2CCN(C3COC3)CC2)c1 [Compound 597, 1-(3-chloro-4-fluoro-phenyl)-N-[3-methyl-5-[4-(oxetan-3-yl)piperazin-1-yl]phenyl]-1,2,4-triazol-3-amine] | 1 to 10 | ≤ 1
9 | Fc1cc(Nc2ncn(-c3cnccn3)n2)cc(N2CCN(C3COC3)CC2)c1 [Compound 598, N-[3-fluoro-5-[4-(oxetan-3-yl)piperazin-1-yl]phenyl]-1-pyrazin-2-yl-1,2,4-triazol-3-amine] | 1 to 10 | 1 to 10
10 | COc1cc(Nc2ncn(-c3cc(F)cc(F)c3)n2)nc(N2CCN(C3COC3)CC2)c1 [Compound 599, N-[1-(3,5-difluorophenyl)-1,2,4-triazol-3-yl]-4-methoxy-6-[4-(oxetan-3-yl)piperazin-1-yl]pyridin-2-amine] | 10 to 100 | 10 to 100
11 | Cc1cc(Nc2ncn(-c3cccc(C(F)(F)F)c3)n2)nc(NC2CCOC2)c1 (stereo not drawn) [Compound 600, 4-methyl-N2-tetrahydrofuran-3-yl-N6-[1-[3-(trifluoromethyl)phenyl]-1,2,4-triazol-3-yl]pyridine-2,6-diamine] | 1 to 10 | 10 to 100
12 | Fc1cc(F)cc(-n2cnc(Nc3cc(C(F)(F)F)cc(N4CC(N5CCOCC5)C4)n3)n2)c1 [Compound 601, N-[1-(3,5-difluorophenyl)-1,2,4-triazol-3-yl]-6-(3-morpholinoazetidin-1-yl)-4-(trifluoromethyl)pyridin-2-amine] | 1 to 10 | ≤ 1
13 | Cc1cc(Nc2ncn(-c3cc(F)cc(F)c3)n2)cc(N2CC(N3CCOC(C)(C)C3)C2)c1 [Compound 602, 1-(3,5-difluorophenyl)-N-[3-[3-(2,2-dimethylmorpholin-4-yl)azetidin-1-yl]-5-methyl-phenyl]-1,2,4-triazol-3-amine] | 1 to 10 | 1 to 10
14 | CCn1cnc(Nc2cc(C)cc(Nc3ncn(-c4ccccc4)n3)c2)n1 [Compound 604, N1-(1-ethyl-1,2,4-triazol-3-yl)-5-methyl-N3-(1-phenyl-1,2,4-triazol-3-yl)benzene-1,3-diamine] | 10 to 100 | ≤ 1
15 | Cc1cc(Nc2ncn(-c3cc(F)cc(F)c3)n2)cc(OCc2ccn(C)n2)c1 [Compound 605, 1-(3,5-difluorophenyl)-N-[3-methyl-5-[(1-methylpyrazol-3-yl)methoxy]phenyl]-1,2,4-triazol-3-amine] | 10 to 100 | 10 to 100
16 | Cc1cc(Nc2ncn(-c3ccc(F)cc3)n2)cc(N2CC(N3CCOCC3)C2)c1 [Compound 606, 1-(4-fluorophenyl)-N-[3-methyl-5-(3-morpholinoazetidin-1-yl)phenyl]-1,2,4-triazol-3-amine] | 1 to 10 | 1 to 10
17 | N#Cc1cc(Nc2ncn(-c3ccc(F)c(F)c3)n2)nc(N2CCN(C3COC3)CC2)c1 [Compound 607, 2-[[1-(3,4-difluorophenyl)-1,2,4-triazol-3-yl]amino]-6-[4-(oxetan-3-yl)piperazin-1-yl]pyridine-4-carbonitrile] | 10 to 100 | 10 to 100
18 | N#Cc1cc(Nc2ncn(-c3ccccc3)n2)cc(N2CCOCC2)c1 [Compound 608, 3-morpholino-5-[(1-phenyl-1,2,4-triazol-3-yl)amino]benzonitrile] | 10 to 100 | 1 to 10
19 | Cc1cc(Nc2ncn(-c3ccccn3)n2)cc(N2CCCN(C3COC3)CC2)c1 [Compound 609, N-[3-methyl-5-[4-(oxetan-3-yl)-1,4-diazepan-1-yl]phenyl]-1-(2-pyridyl)-1,2,4-triazol-3-amine] | 100 to 1000 | 100 to 1000
20 | COc1cc(Nc2ncn(-c3cccc(C(F)(F)F)c3)n2)nc(N2CCN(C3COC3)CC2)c1 [Compound 610, 4-methoxy-6-[4-(oxetan-3-yl)piperazin-1-yl]-N-[1-[3-(trifluoromethyl)phenyl]-1,2,4-triazol-3-yl]pyridin-2-amine] | 1 to 10 | 1 to 10
21 | Fc1cc(F)cc(-n2cnc(Nc3cc(N4CC(N5CCOCC5)C4)cc(F)n3)n2)c1 [Compound 612, N-[1-(3,5-difluorophenyl)-1,2,4-triazol-3-yl]-6-fluoro-4-(3-morpholinoazetidin-1-yl)pyridin-2-amine] | ≤ 1 | 10 to 100
22 | Cc1cc(Nc2ncn(-c3cc(F)cc(F)c3)n2)cc(C2(C)CN(C)C(=O)O2)c1 (stereo not drawn) [Compound 613, 5-[3-[[1-(3,5-difluorophenyl)-1,2,4-triazol-3-yl]amino]-5-methyl-phenyl]-3,5-dimethyl-oxazolidin-2-one] | 10 to 100 | 1 to 10
23 | Cc1cc(Nc2ncn(-c3cc(F)cc(F)c3)n2)nc(NC2CCOC2)c1 (stereo not drawn) [Compound 614, N6-[1-(3,5-difluorophenyl)-1,2,4-triazol-3-yl]-4-methyl-N2-tetrahydrofuran-3-yl-pyridine-2,6-diamine] | 1 to 10 | 1 to 10
24 | Cc1cc(Nc2ncn(-c3ccc(F)c(F)c3)n2)cc(OCC2(C)COC2)c1 [Compound 615, 1-(3,4-difluorophenyl)-N-[3-methyl-5-[(3-methyloxetan-3-yl)methoxy]phenyl]-1,2,4-triazol-3-amine] | 10 to 100 | 10 to 100
25 | Cc1cc(N2CC(N3CCOCC3)C2)cc(Nc2ncn(-c3cc(F)cc(F)c3)n2)n1 [Compound 616, N-[1-(3,5-difluorophenyl)-1,2,4-triazol-3-yl]-6-methyl-4-(3-morpholinoazetidin-1-yl)pyridin-2-amine] | 1 to 10 | ≤ 1
26 | Cc1cc(Nc2ncn(-c3cc(F)cc(F)c3)n2)cc(N2CC(N3CCC(F)CC3)C2)c1 [Compound 617, 1-(3,5-difluorophenyl)-N-[3-[3-(4-fluoro-1-piperidyl)azetidin-1-yl]-5-methyl-phenyl]-1,2,4-triazol-3-amine] | 10 to 100 | 10 to 100
27 | Cc1cc(Nc2ncn(-c3cc(F)cc(F)c3)n2)cc(N2CC(N3C[C@@H](C)O[C@@H](C)C3)C2)c1 [Compound 618, 1-(3,5-difluorophenyl)-N-[3-[3-[(2R,6S)-2,6-dimethylmorpholin-4-yl]azetidin-1-yl]-5-methyl-phenyl]-1,2,4-triazol-3-amine] | 10 to 100 | 10 to 100
28 | COCC1CCN(c2cc(C)cc(Nc3ncn(-c4cc(F)cc(F)c4)n3)n2)CC1 [Compound 619, N-[1-(3,5-difluorophenyl)-1,2,4-triazol-3-yl]-6-[4-(methoxymethyl)-1-piperidyl]-4-methyl-pyridin-2-amine] | 1 to 10 | 1 to 10
29 | Cc1cc(Nc2ncn(-c3cc(F)cc(F)c3)n2)cc(OC2CCCN(C3COC3)C2)c1 (stereo not drawn) [Compound 620, 1-(3,5-difluorophenyl)-N-[3-methyl-5-[[1-(oxetan-3-yl)-3-piperidyl]oxy]phenyl]-1,2,4-triazol-3-amine] | 10 to 100 | 1 to 10
30 | Fc1cc(-n2cnc(Nc3cc(C(F)F)cc(N4CCN(C5COC5)CC4)n3)n2)ccc1Cl [Compound 621, N-[1-(4-chloro-3-fluoro-phenyl)-1,2,4-triazol-3-yl]-4-(difluoromethyl)-6-[4-(oxetan-3-yl)piperazin-1-yl]pyridin-2-amine] | 10 to 100 | 1 to 10
